This is an account of results in patent US8501744B2, “Piperazine compounds” (Amura Therapeutics, Limited, priority 2008, dated 2013).

The experiment has as its target Human recombinant cathepsin K (Homo sapiens (Human), UniProt P43235). The experiment can be described thus: In vitro cathepsin Ki inhibition measurements. Particulars: for Ki: human recombinant cathepsin K, pH 5.5, Z-Leu-Arg-AMC substrate, read-out: In vitro Ki (nM) vs Cath K; for fold improvement in in vitro potency against human cathepsin K: relative to closest prior art compound (42). The experiment is classed as biochemical. The protocol:
Stock solutions of substrate or inhibitor were made up to 10 mM in 100% dimethylsulfoxide (DMSO) (Rathburns, Glasgow, U.K.) and diluted as appropriately required. In all cases the DMSO concentration in the assays was maintained at less than 1% (vol./vol.). The equilibrium inhibition constants (Ki^ss) for each compound were measured under steady-state conditions monitoring enzyme activity as a function of inhibitor concentration. The values were calculated on the assumption of pure competitive behaviour (Cornish-Bowden, A. Fundamentals of enzyme kinetics Portland Press; 1995, 93-128.). Human recombinant cathepsin K (0.25 nM final; B. Turk, Josef, Stefan Institute, Ljubljana, Slovenia), was routinely assayed in 100 mM sodium acetate; pH 5.5 containing 1 mM EDTA, 10 mM L-cysteine and 1.8 μM Z-Leu-Arg-AMC ([S]=KM).
The apparent inhibition constant (Ki) for each compound was determined on the basis that inhibition was reversible and occurred by a pure-competitive mechanism. The Ki values were calculated, from the dependence of enzyme activity as a function of inhibitor concentration, by direct regression analysis (Prism v 3.02) using Equation 2 (Cornish-Bowden, A., 1995.).
In situations where the apparent dissociation constant (Ki^app) approached the enzyme concentrations, the Ki^app values were calculated using a quadratic solution in the form described by Equation 3 (Morrison, J. F. Trends Biochem. Sci., 7, 102-105, 1982; Morrison, J. F. Biochim. Biophys. Acta. 185, 269-286, 1969; Stone, S. R. and Hofsteenge, J. Biochemistry, 25, 4622-4628, 1986).
Curves were fitted by non-linear regression analysis (Prism) using a fixed value for the enzyme concentration. Equation 4 was used to account for the substrate kinetics, where ‘Ki’ is the inhibition constant, ‘[So]’ is the initial substrate concentration and ‘KM^app’ is the apparent macroscopic binding (Michaelis) constant for the substrate (Morrison, 1982).

Human recombinant cathepsin K, sequence (P43235 115-329): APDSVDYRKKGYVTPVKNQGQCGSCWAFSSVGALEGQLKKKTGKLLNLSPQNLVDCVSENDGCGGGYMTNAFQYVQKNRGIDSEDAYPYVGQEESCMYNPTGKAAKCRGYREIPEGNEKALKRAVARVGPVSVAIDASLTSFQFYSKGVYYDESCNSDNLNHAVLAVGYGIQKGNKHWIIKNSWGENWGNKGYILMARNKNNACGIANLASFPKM

With `CC(C)C[C@H](NC(=O)c1ccc(N2CCN(C)CC2)cc1)C(=O)N1C[C@@H](C)[C@H]2OCC(=O)[C@H]21` [Example 1, N—((S)-4-methyl-1-((3aS,6R,6aR)-6-methyl-3-oxodihydro-2H-furo[3,2-b]pyrrol-4(5H,6H,6aH)-yl)-1-oxopentan-2-yl)-4-(4-methylpiperazin-1-yl)benzamide], the Ki amounted to 2.5 nM and the “fold improvement in in vitro potency against human cathepsin K” value (“fold improvement in in vitro potency” below) is on record as 3.5 fold.
Taken in the same sequence, the figures for `C[C@@H]1CN(C(=O)[C@@H](NC(=O)c2ccc(N3CCN(C)CC3)cc2)C2CCCC2)[C@@H]2C(=O)CO[C@H]12` [Example 4, N—((S)-1-cyclopentyl-2-((3aS,6R,6aR)-6-methyl-3-oxodihydro-2H-furo[3,2-b]pyrrol-4(5H,6H,6aH)-yl)-2-oxoethyl)-4-(4-methylpiperazin-1-yl)benzamide] were 1 nM and 8.7 fold.
Consider `CC(C)C[C@H](NC(=O)c1ccc(N2CCN(C)CC2)cc1)C(=O)N1C[C@H](C)[C@H]2OCC(=O)[C@H]21` [Example 5, N—((S)-4-methyl-1-((3aS,6S,6aR)-6-methyl-3-oxodihydro-2H-furo[3,2-b]pyrrol-4(5H,6H,6aH)-yl)-1-oxopentan-2-yl)-4-(4-methylpiperazin-1-yl)benzamide], for which the inhibition constant (Ki) turned out to be 0.75 nM and the “fold improvement in in vitro potency” value worked out at 11.6 fold.
Take `C[C@H]1CN(C(=O)[C@@H](NC(=O)c2ccc(N3CCN(C)CC3)cc2)C2CCCC2)[C@@H]2C(=O)CO[C@@H]21` [Example 7, N—((S)-1-cyclopentyl-2-((3aS,6S,6aR)-6-methyl-3-oxodihydro-2H-furo [3,2-b]pyrrol-4(5H,6H,6aH)-yl)-2-oxoethyl)-4-(4-methylpiperazin-1-yl)benzamide]: the Ki came out at 0.35 nM and the “fold improvement in in vitro potency” value is 24.9 fold.
Taken in the same sequence, the figures for `CC(C)C[C@H](NC(=O)c1ccc(N2CCN(C)CC2)cc1)C(=O)N1C[C@@H](C(F)F)[C@H]2OCC(=O)[C@H]21` [Example 8, N—((S)-1-((3aS,6R,6aR)-6-(difluoromethyl)-3-oxodihydro-2H-furo[3,2-b]pyrrol-4(5H,6H,6aH)-yl)-4-methyl-1-oxopentan-2-yl)-4-(4-methylpiperazin-1-yl)benzamide] were 1.7 nM and 5.7 fold.
Consider `CC(C)C[C@H](NC(=O)c1ccc(N2CCN(C)CC2)cc1)C(=O)N1C[C@H](C(F)F)[C@H]2OCC(=O)[C@H]21` [Example 12, N—((S)-1-((3aS,6S,6aR)-6-(difluoromethyl)-3-oxodihydro-2H-furo[3,2-b]pyrrol-4(5H,6H,6aH)-yl)-4-methyl-1-oxopentan-2-yl)-4-(4-methylpiperazin-1-yl)benzamide], for which the Ki amounted to 0.8 nM and the “fold improvement in in vitro potency” value came out at 10.9 fold.
With `CC(C)C[C@H](NC(=O)c1ccc(-c2csc(N3CCN(C)CC3)n2)cc1)C(=O)N1C[C@@H](C)[C@H]2OCC(=O)[C@H]21` [Example 16, N—((S)-4-methyl-1-((3aS,6R,6aR)-6-methyl-3-oxodihydro-2H-furo[3,2-b]pyrrol-4(5H,6H,6aH)-yl)-1-oxopentan-2-yl)-4-(2-(4-methylpiperazin-1-yl)thiazol-4-yl)benzamide], the inhibitory constant (Ki) came out at 0.7 nM.
On the same count and under the same terms, in the case of `CC[C@@H]1CN(C(=O)[C@@H](NC(=O)c2ccc(N3CCN(C)CC3)cc2)C(C)(C)C)[C@@H]2C(=O)CO[C@H]12` [Example 23, N—((S)-1-((3aS,6R,6aR)-6-ethyl-3-oxodihydro-2H-furo[3,2-b]pyrrol-4(5H,6H,6aH)-yl)-3,3-dimethyl-1-oxobutan-2-yl)-4-(4-methylpiperazin-1-yl)benzamide] it was 4.4 nM; in that of `CC(C)[C@@H]1CN(C(=O)[C@@H](NC(=O)c2ccc(N3CCN(C)CC3)cc2)C(C)(C)C)[C@@H]2C(=O)CO[C@@H]21` [Example 24, N—((S)-1-((3aS,6R,6aH)-6-isopropyl-3-oxodihydro-2H-furo[3,2-b]pyrrol-4(5H,6H,6aH)-yl)-3,3-dimethyl-1-oxobutan-2-yl)-4-(4-methylpiperazin-1-yl)benzamide], 3.2 nM; in that of `CC[C@H]1CN(C(=O)[C@@H](NC(=O)c2ccc(N3CCN(C)CC3)cc2)C(C)(C)C)[C@@H]2C(=O)CO[C@H]12` [Example 25, N—((S)-1-((3aS,6S,6aR)-6-ethyl-3-oxodihydro-2H-furo[3,2-b]pyrrol-4(5H,6H,6aH)-yl)-3,3-dimethyl-1-oxobutan-2-yl)-4-(4-methylpiperazin-1-yl)benzamide], 0.8 nM.
Same read-out and setting: the same measure for `CC(C)[C@H]1CN(C(=O)[C@@H](NC(=O)c2ccc(N3CCN(C)CC3)cc2)C(C)(C)C)[C@@H]2C(=O)CO[C@H]12` [Example 26, N—((S)-1-((3aS,6S,6aR)-6-isopropyl-3-oxodihydro-2H-furo[3,2-b]pyrrol-4 (5H,6H,6aH)-yl)-3,3-dimethyl-1-oxobutan-2-yl)-4-(4-methylpiperazin-1-yl)benzamide]: 0.8 nM.
Turning to `CC[C@@H]1CN(C(=O)[C@@H](NC(=O)c2ccc(N3CCN(C)CC3)cc2)C2CCCC2)[C@@H]2C(=O)CO[C@H]12` [Example 27, N—((S)-1-cyclopentyl-2-((3aS,6R,6aR)-6-ethyl-3-oxodihydro-2H-furo[3,2-b]pyrrol-4(5H,6H,6aH)-yl)-2-oxoethyl)-4-(4-methylpiperazin-1-yl)benzamide], the Ki was found to be 1.2 nM and the “fold improvement in in vitro potency” value was 7.3 fold.
On the same counts, the results for `CC(C)[C@@H]1CN(C(=O)[C@@H](NC(=O)c2ccc(N3CCN(C)CC3)cc2)C2CCCC2)[C@@H]2C(=O)CO[C@@H]21` [Example 28, N—((S)-1-cyclopentyl-2-((3aS,6R,6aR)-6-isopropyl-3-oxodihydro-2H-furo [3,2-b]pyrrol-4(5H,6H,6aH)-yl)-2-oxoethyl)-4-(4-methylpiperazin-1-yl)benzamide] are 1.5 nM and 5.8 fold.
On the same counts, the results for `CC[C@H]1CN(C(=O)[C@@H](NC(=O)c2ccc(N3CCN(C)CC3)cc2)C2CCCC2)[C@@H]2C(=O)CO[C@H]12` [Example 29, N—((S)-1-cyclopentyl-2-((3aS,6S,6aR)-6-ethyl-3-oxodihydro-2H-furo[3,2-b]pyrrol-4(5H,6H,6aH)-yl)-2-oxoethyl)-4-(4-methylpiperazin-1-yl)benzamide] are 0.4 nM and 22.9 fold.
Taken in the same sequence, the figures for `CC(C)[C@H]1CN(C(=O)[C@@H](NC(=O)c2ccc(N3CCN(C)CC3)cc2)C2CCCC2)[C@@H]2C(=O)CO[C@H]12` [Example 30, N—((S)-1-cyclopentyl-2-((3aS,6S,6aR)-6-isopropyl-3-oxodihydro-2H-furo[3,2-b]pyrrol-4(5H,6H,6aH)-yl)-2-oxoethyl)-4-(4-methylpiperazin-1-yl)benzamide] were 0.45 nM and 18.9 fold.

As usually defined, the Ki is a measure of affinity in units of concentration, obtained from inhibition or displacement.
